Publication PMC7331992, “Targeting the oral plaque microbiome with immobilized anti-biofilm peptides at tooth-restoration interfaces” (PLoS ONE, 2020)
Square brackets hold non-standard residues; d marks the D form. Ends that are not written are not given here. Peptide text beside a SMILES is read from it.

What was measured:
[1] = system: supragingival dental plaque samples from 10 high caries risk subjects; type: cell-based, plaque bacteria (human subjects); conditions: 24 h
Text: After a written informed consent was obtained from all participants, supragingival dental plaque samples from 10 high caries risk subjects were collected from either the occlusal or buccal margin of existing restorations at the University of Minnesota (Institutional Review Board #1403M48865). Each subject was examined for a formal caries risk assessment (CAMBRA) which classifies the caries risk status into 3 categories (low, moderate, high) considering a wide-range of biological predisposing factors and the protective factors, 8 factors each, in addition to the comprehensive clinical examination. All subjects had experienced active carious lesions and were still at high risk for future caries; otherwise, they were in good general health and had not taken antibiotics within 3 months of plaque sampling.
All dental plaque samples were collected using a sterile sickle scaler, and each sample was immediately deposited into a vial containing 1 ml pre-reduced anaerobic transfer medium (Anaerobe Systems, Morgan Hill, CA, USA). […] After 24 h of peptide treatment, absorbance at 600 nm was measured using a microtiter plate reader (Bio-Tek Instruments, Winooski, VT, USA). Plaque sample #311 was challenging in the planktonic state and, additionally, it formed the highest adherent biofilm using the Crystal Violet assay as measured by Dr. Robert S. Jones lab (data not shown). […]

[2] = system: #311 plaque biofilm; assay: Live/dead viability assay of plaque biofilms on peptide-coated HA discs; type: cell-based, plaque bacteria (human subject)
Protocol: Hydroxyapatite (HA) discs (9.65 mm diameter by 1.52 mm thickness; Clarkson Chromatography Products, Williamsport, PA, USA) were sterilized by autoclaving to be used as plaque biofilm substrates. Both sides of each disc were etched by 32% phosphoric acid gel (Scotchbond™ Universal Etchant, 3M, St. Paul, MN, USA) for 15 s followed by 10 s water-rinse and 10 s air-dry. The discs were coated, incubated with a thin layer of peptide solution at 37 °C for 1 min, by 1 mg/ml of either D-GL13K or 1018 or DJK2 followed by 60 s air-dry. The control discs were etched, but were not coated with peptides. All samples were subject to ultrasonication in water bath for 15 min to remove any unattached peptides. X-ray Photoelectron Spectroscopy (XPS; SSX-100, Surface Science Laboratories; Al Kα X-ray, 1 mm spot-size, 35° take-off angle) was used to detect the atomic composition of the coated surfaces. […]
Working solution of fluorescent stains (L7012, LIVE/DEAD BacLight Bacterial Viability Kit, ThermoFisher Scientific, Waltham, MA, USA) was prepared by adding 3 μl of SYTO® 9 (live cell stain) and 3 μl of Propidium iodide (PI, dead cell stain) to 1 ml of sterilized Milli-Q® ultrapure water. […] The regrown biofilms were re-assessed using the same Live/Dead assay.

[3] = system: plaque biofilm microbial community; assay: 16S rRNA gene sequencing of plaque biofilm community on AAMPs-coated HA discs; type: cell-based, plaque bacteria (human subject)
Protocol: PMA treatment was conducted for selective detection of viable bacteria. Prior to DNA extraction, the collected 1ml of bacterial cells was sub-divided into 0.5ml with PMA and the other 0.5ml without PMA treatment for each sample for fulfilling a pairs-matched statistical design (S1 Fig in S1 File). PMA was added to the assigned samples for a final concentration of 50 μM. The samples were incubated in the dark for 10 minutes on a shaker at room temperature. The samples were exposed to a PMA-Lite LED photolysis device light (Biotium, Fremont, CA, USA) to cross-link PMA to DNA for 15 minutes. Cells were pelleted by centrifuging at 5000x g for 10 minutes in preparation for genomic DNA extraction.
Genomic DNA was extracted from all samples; i.e., PMA and non-PMA treated bacteria. The protocol amended from Epicentre MasterPure™ DNA Purification Kit and Epicentre MasterPure™ Gram Positive DNA Purification Kit was followed (http://homings.forsyth.org/DNA%20Isolation%20Protocol.pdf, last access 03/31/2020).
The extracted DNA was submitted to the University of Minnesota Genomics Center for dual-indexed 16S rRNA gene amplicon sequencing using the V3-V4 region on the Illumina MiSeq platform 300PE.
Primers where removed with FilterandTrim, paired reads were merged with mergePairs, Bimeras where removed in with removeBimeraDenovo, and Silva version 132 was used for taxonomy identification. Sequences with a length < 251 and > 255 were removed as well as sequences with a total read count across all samples equal to 1. Further analysis of the ASV table was performed in R with the vegan, reshape2, ggplot2, grid, gridExtra, plyr, dplyr packages. The alpha diversity indices of Shannon, Simpson, Inverse Simpson (InvSympson) were calculated at 97% identity. Beta diversity analysis was performed by principal coordinates analysis (PCoA) based on Bray-Curtis distances at the Operational Taxonomic Unit (OTU) level. […]

[4] = system: plaque biofilm along dentin-composite interface; assay: Multiphoton live/dead bioimaging of plaque biofilm along dentin-composite interfacial gap; type: cell-based, plaque bacteria (human subject); bovine dentin; conditions: D-GL13K-coated dentin
Text: Roots of bovine teeth were used to prepare restored dentin-composite discs (Fig 1). After the crowns and apical thirds of each tooth were cut off, the root canals were enlarged to 2 mm in diameter, using 1.9-mm diameter fiber post drills (RelyX™ Fiber Post, 3M, St. Paul, MN, USA). The outer surface of the roots was trimmed down to 5 mm in diameter using a lathe to remove cementum and external layers of dentin. The obtained dentin tubes (5 mm in outer diameter and 2 mm in inner diameter) were water rinsed and stored in 0.5 chloramine T solution at 4 °C until the restorative procedures were performed. […]
Multiphoton images were acquired in a Multiphoton upright microscope equipped with an A1R laser scan head (Nikon FN1, Tokyo, Japan). […] Multiphoton excitation fluorescence was collected in the epi direction in the green (470–550) and orange-red (570–640) channels. […] Images were compiled and analyzed with NIS Elements software (Version 4.11.0, Nikon, Tokyo, Japan).
Quantification of red and green cells was done by standard co-localization analysis using Fiji image processing package. The percentage of red cells, which is usually associated to dead cells was calculated as: deadcells%=(totalvolumeofredcells/totalvolumeofcells)x100

[5] = system: #311 plaque sample; conditions: cultures of highly adherent #311 plaque sample; several batches; n = 3; Fig 2C; cited from earlier work
Protocol: (§1) MICs of D-GL13K against cultures of all 10 plaque biofilm samples were in the range 1–4 μg/ml (Fig 2A). […] Potency of the rest of AAMPs candidates was tested against cultures of the highly adherent #311 sample. […] The controls, scrambled amino acid versions of D- ...

[6] = system: #311 plaque biofilm; conditions: Fig 2B, cited from earlier work
Protocol: as §1, with “However, biofilms show increased resistance to antimicrobial agents than suspension cultures.” for “The controls, scrambled amino acid versions of D- ...”

| Molecule | MIC [1] [µg/mL] | live/dead assay, effect on bacteria ([2]; D-GL13K-coated HA discs, 48 h biofilm growth) | antibiofilm activity of challenged coatings ([2]; coating challenged by 45 min ultrasonication or 45 min 30% acetic acid (pH 2.4), biofilms regrown 5 and 15 days) | bacterial community richness (Shannon index) compared to controls ([3]; 48-h biofilm on coated HA discs, genus level) | abundance of less abundant taxa Actinomyces and Gemella compared to controls ([3]; ANCOM, coated HA discs) | number and relative abundance of Streptococcus and Veillonella combined versus controls ([3]; Shannon, Simpson, InvSimpson indices, coated HA discs) | antibiofilm potency on 18-day-old interfacial plaque biofilm ([4]; 18-day-old biofilm, 3D rendering) | Percentage of dead cells ([4]; interfacial 9-day-old biofilm, average ± SD, n=6, control 31.5%± 8%, p = 0.018) | MIC [5] [µg/mL] | inhibition of #311 plaque biofilm ([6]; 25 μg/ml D-GL13K, 6-day-old biofilm) | suppression of biofilm biovolume compared to controls ([6]; highly adherent plaque biofilm) [%] |
| --- | --- | --- | --- | --- | --- | --- | --- | --- | --- | --- | --- |
| CC[C@@H](C)[C@@H](NC(=O)[C@@H](CCCCN)NC(=O)CN)C(=O)N[C@@H](C(=O)N[C@H](CCCCN)C(=O)N[C@H](CC(C)C)C(=O)N[C@H](CCCCN)C(=O)N[C@H](C)C(=O)N[C@H](CO)C(=O)N[C@H](CC(C)C)C(=O)N[C@H](CCCCN)C(=O)N[C@H](CC(C)C)C(=O)N[C@H](CC(C)C)C(N)=O)[C@H](C)CC [D-GL13K] (H-G[dK][dI][dI][dK][dL][dK][dA][dS][dL][dK][dL][dL]-NH2; N-terminus and C-terminus assumed) | 1 to 4 | uniform and marked loss of the integrity of bacterial membranes | sustained antibiofilm activity | significantly reduced | significant reduction | significant reduction | maintained their antibiofilm potency | 60% ± 10% | 1 to 2 | around 4 fold | > 70 |
| L-GL13K: antimicrobial amphipathic peptide GL13K, L-amino acids (GKIIKLKASLKLL; not fully specified (C-terminus)) | – | – | – | – | – | – | – | – | 8 | – | – |
